From paper PMC4730229, “Benzobisthiazoles Represent a Novel Scaffold for Kinase Inhibitors of CLK Family Members” (Biochemistry, 2015)

Tests used:
Assay in all cases: Kinase profiling (radioactive filter binding)
Format in all cases: biochemical
Details in all cases: 1 uM compound
[1] = biological target: TIE2 (Homo sapiens, UniProt Q02763)
Method: (§1) 3A5 and 5E4 were sent to the International Centre for Kinase Profiling at the MRC Protein Phosphorylation and Ubiquitylation Unit for profiling (as described in ref ([17])). Compounds were profiled against 140 kinases using a radioactive ([^33P]ATP) filter binding assay at a concentration of 1 μM. Results were obtained as inhibition of kinase activity and are listed in Supplementary Table 2.

[2] = biological target: PKCz (Homo sapiens, UniProt Q05513)
Method: as §1

[3] = biological target: IKKe (Homo sapiens, UniProt Q14164)
Method: as §1

[4] = biological target: Aurora A (Homo sapiens, UniProt O14965)
Method: as §1

[5] = biological target: PAK5 (Homo sapiens, UniProt Q9P286)
Method: as §1

[6] = biological target: YES1 (Homo sapiens, UniProt P07947)
Method: as §1

[7] = biological target: ROCK 2 (Rattus norvegicus, UniProt Q62868)
Method: as §1

[8] = biological target: GCK (Homo sapiens, UniProt Q12851)
Method: as §1

[9] = biological target: PRAK (Homo sapiens, UniProt Q8IW41)
Method: as §1

[10] = biological target: PKD1 (Homo sapiens, UniProt Q15139)
Method: as §1

[11] = biological target: p38d MAPK (Homo sapiens, UniProt O15264)
Method: as §1

[12] = biological target: PKCa (Homo sapiens, UniProt P17252)
Method: as §1

[13] = biological target: IRR (Homo sapiens, UniProt P14616)
Method: as §1

[14] = biological target: SGK1 (Homo sapiens, UniProt O00141)
Method: as §1

[15] = biological target: MAPKAP-K2 (Homo sapiens, UniProt P49137)
Method: as §1

[16] = biological target: HER4 (Homo sapiens, UniProt Q15303)
Method: as §1

[17] = biological target: CHK1 (Homo sapiens, UniProt O14757)
Method: as §1

[18] = biological target: JNK1 (Homo sapiens, UniProt P45983)
Method: as §1

[19] = biological target: SYK (Homo sapiens, UniProt P43405)
Method: as §1

[20] = biological target: ABL (Homo sapiens, UniProt P00519)
Method: as §1

[21] = biological target: MEKK1 (Homo sapiens, UniProt Q13233)
Method: as §1

[22] = biological target: BRSK1 (Homo sapiens, UniProt Q8TDC3)
Method: as §1

[23] = biological target: PLK1 (Homo sapiens, UniProt P53350)
Method: as §1

[24] = biological target: PKBb (Homo sapiens, UniProt P31751)
Method: as §1

[25] = biological target: HIPK3 (Homo sapiens, UniProt Q9H422)
Method: as §1

[26] = biological target: TGFBR1 (Homo sapiens, UniProt P36897)
Method: as §1

[27] = biological target: PIM2 (Homo sapiens, UniProt Q9P1W9)
Method: as §1

[28] = biological target: p38b MAPK (Homo sapiens, UniProt Q15759)
Method: as §1

[29] = biological target: TTK (Homo sapiens, UniProt P33981)
Method: as §1

[30] = biological target: PAK2 (Homo sapiens, UniProt Q13177)
Method: as §1

[31] = biological target: EIF2AK3 (Homo sapiens, UniProt Q9NZJ5)
Method: as §1

[32] = biological target: TESK1 (Homo sapiens, UniProt Q15569)
Method: as §1

[33] = biological target: EF2K (Homo sapiens, UniProt O00418)
Method: as §1

[34] = biological target: CHK2 (Homo sapiens, UniProt O96017)
Method: as §1

[35] = biological target: BRK (Homo sapiens, UniProt Q13882)
Method: as §1

[36] = biological target: MST4 (Homo sapiens, UniProt Q9P289)
Method: as §1

[37] = biological target: TrkA (Homo sapiens, UniProt P04629)
Method: as §1

[38] = biological target: MNK2 (Homo sapiens, UniProt Q9HBH9)
Method: as §1

[39] = biological target: Lck (Homo sapiens, UniProt P06239)
Method: as §1

[40] = biological target: TLK1 (Homo sapiens, UniProt Q9UKI8)
Method: as §1

[41] = biological target: HIPK2 (Homo sapiens, UniProt Q9H2X6)
Method: as §1

[42] = biological target: PAK4 (Homo sapiens, UniProt O96013)
Method: as §1

[43] = biological target: MLK1 (Homo sapiens, UniProt P80192)
Method: as §1

Sequence of TTK (P33981 whole entry): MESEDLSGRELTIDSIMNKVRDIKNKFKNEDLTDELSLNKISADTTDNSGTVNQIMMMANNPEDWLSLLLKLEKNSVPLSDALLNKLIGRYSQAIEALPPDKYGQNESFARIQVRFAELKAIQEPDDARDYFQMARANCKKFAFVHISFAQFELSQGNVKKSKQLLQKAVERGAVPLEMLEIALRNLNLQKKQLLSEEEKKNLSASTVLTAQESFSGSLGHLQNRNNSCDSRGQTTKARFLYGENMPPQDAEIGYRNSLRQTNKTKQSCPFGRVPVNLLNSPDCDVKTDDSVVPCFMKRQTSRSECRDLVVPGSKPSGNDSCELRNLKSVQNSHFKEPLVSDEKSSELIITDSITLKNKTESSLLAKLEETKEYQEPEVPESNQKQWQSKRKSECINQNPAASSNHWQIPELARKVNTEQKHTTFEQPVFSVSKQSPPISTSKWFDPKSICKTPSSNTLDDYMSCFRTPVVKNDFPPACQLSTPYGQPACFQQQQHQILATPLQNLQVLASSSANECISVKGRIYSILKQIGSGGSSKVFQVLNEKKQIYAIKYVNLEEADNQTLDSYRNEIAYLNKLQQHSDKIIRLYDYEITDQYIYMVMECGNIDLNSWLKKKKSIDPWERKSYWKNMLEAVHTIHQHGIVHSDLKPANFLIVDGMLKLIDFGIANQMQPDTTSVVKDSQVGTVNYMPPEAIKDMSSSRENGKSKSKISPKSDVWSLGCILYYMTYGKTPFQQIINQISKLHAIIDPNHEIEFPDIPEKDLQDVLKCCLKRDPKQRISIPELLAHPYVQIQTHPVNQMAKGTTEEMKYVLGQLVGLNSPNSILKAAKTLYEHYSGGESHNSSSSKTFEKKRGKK
Sequence of ROCK 2 (Q62868 2-543 limits assumed): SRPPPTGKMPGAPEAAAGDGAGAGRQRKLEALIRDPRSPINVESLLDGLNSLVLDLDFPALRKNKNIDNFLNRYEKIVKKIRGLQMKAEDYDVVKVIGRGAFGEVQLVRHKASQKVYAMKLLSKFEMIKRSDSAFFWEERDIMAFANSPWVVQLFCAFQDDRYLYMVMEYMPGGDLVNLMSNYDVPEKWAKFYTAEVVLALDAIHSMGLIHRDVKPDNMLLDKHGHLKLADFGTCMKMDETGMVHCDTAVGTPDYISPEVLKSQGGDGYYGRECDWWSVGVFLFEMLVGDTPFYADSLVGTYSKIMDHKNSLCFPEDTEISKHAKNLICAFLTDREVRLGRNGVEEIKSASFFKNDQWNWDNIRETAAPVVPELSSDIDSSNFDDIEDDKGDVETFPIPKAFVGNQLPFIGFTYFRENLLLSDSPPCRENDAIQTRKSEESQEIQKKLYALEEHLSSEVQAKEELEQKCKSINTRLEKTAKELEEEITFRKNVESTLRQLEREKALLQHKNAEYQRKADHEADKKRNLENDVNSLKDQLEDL
Sequence of TGFBR1 (P36897 34-503): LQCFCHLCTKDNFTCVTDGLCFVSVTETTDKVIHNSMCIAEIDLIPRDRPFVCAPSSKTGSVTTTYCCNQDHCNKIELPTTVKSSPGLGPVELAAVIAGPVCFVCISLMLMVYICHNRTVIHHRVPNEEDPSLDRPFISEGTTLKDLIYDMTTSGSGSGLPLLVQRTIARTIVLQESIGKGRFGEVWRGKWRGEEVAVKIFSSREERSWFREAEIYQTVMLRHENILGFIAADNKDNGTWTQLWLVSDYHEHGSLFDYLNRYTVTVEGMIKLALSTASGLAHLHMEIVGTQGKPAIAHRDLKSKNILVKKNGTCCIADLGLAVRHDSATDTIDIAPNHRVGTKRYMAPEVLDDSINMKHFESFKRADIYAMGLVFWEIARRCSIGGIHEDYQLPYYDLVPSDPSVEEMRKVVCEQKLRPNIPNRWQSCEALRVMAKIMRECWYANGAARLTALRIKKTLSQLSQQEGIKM
Sequence of TIE2 (Q02763 23-1124): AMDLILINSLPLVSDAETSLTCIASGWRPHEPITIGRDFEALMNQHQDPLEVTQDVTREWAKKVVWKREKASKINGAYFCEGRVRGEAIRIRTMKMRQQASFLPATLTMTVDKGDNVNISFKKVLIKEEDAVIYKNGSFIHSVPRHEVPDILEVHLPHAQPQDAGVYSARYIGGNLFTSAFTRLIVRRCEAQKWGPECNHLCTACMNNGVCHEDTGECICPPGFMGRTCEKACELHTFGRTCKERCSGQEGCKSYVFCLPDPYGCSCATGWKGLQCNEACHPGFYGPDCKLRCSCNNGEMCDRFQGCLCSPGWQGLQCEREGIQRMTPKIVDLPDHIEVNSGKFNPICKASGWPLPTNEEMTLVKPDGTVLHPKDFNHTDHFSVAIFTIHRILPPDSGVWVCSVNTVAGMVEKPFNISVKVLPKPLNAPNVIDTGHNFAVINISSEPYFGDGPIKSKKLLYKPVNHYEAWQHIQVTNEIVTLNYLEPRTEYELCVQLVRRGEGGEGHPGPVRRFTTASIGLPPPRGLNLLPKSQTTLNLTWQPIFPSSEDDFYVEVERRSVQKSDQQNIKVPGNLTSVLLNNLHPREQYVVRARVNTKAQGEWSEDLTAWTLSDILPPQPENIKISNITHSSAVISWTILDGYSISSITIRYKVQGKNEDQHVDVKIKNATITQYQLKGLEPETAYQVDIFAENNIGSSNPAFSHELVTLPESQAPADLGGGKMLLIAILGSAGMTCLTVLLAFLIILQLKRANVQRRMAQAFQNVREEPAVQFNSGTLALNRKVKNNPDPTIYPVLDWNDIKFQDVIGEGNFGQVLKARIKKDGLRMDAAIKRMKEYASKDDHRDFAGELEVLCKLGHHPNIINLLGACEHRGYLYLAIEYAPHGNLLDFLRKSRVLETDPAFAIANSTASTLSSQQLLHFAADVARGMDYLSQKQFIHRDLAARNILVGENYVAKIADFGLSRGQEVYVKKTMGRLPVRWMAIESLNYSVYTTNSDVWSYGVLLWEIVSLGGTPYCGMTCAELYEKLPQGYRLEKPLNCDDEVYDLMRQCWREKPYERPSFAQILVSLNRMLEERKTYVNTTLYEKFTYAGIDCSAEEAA
Sequence of PIM2 (Q9P1W9 whole entry): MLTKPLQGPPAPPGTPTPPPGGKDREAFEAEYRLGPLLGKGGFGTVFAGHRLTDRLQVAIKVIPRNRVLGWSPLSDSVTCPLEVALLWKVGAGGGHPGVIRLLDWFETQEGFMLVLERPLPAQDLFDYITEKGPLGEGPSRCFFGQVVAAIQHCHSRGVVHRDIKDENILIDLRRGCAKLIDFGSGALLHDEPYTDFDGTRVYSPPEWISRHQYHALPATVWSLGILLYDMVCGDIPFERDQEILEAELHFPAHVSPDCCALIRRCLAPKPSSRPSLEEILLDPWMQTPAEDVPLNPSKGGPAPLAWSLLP
Sequence of PLK1 (P53350 whole entry): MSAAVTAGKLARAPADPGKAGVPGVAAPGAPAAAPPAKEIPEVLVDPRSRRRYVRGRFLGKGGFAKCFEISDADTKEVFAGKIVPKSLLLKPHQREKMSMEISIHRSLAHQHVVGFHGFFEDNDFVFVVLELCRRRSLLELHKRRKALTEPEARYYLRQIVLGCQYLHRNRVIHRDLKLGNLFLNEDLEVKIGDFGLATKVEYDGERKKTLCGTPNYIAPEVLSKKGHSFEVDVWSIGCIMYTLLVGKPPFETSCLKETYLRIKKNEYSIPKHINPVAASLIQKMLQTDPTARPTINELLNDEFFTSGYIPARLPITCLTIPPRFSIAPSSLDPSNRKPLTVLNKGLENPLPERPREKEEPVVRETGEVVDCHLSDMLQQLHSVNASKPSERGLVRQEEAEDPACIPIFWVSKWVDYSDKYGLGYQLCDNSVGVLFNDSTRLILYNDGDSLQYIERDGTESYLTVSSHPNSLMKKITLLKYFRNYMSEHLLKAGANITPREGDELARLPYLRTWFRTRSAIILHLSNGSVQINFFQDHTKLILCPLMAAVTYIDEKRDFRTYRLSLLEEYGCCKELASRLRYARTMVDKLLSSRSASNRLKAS
Sequence of MLK1 (P80192 whole entry): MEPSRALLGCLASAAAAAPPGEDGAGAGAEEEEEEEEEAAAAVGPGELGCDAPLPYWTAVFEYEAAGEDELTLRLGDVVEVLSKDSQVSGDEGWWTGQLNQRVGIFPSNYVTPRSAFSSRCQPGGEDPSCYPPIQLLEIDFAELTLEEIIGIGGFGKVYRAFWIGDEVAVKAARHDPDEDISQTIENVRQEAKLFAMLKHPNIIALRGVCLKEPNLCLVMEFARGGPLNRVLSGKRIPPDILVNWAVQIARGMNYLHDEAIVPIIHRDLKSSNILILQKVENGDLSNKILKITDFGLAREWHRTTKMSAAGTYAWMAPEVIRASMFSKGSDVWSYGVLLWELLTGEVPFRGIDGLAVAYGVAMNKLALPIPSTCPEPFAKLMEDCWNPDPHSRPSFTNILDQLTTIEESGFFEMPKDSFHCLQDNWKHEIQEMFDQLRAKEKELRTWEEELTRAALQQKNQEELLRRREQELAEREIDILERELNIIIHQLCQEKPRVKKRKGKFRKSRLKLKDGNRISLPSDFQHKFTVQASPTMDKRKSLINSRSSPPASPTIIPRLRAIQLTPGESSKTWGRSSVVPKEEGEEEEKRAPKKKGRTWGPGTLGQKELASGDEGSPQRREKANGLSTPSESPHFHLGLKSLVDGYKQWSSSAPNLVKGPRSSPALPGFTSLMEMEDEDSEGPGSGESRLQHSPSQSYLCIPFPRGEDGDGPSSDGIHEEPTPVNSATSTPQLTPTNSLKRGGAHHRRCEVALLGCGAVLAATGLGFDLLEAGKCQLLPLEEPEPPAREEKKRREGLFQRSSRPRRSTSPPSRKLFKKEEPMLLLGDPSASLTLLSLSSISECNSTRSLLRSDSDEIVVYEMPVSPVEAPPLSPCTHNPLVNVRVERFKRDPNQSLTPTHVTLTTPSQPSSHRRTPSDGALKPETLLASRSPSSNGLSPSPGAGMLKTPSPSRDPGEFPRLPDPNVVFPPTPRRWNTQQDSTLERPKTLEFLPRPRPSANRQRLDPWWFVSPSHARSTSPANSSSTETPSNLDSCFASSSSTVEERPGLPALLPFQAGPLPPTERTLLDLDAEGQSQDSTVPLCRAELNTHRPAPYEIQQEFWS

## Cc1nc2ccc3sc(NC(=O)c4ccc5ncsc5c4)nc3c2s1 [3A5, N-(2-methyl[1,3]thiazolo[5,4-e][1,3]benzothiazol-7-yl)-1,3-benzothiazole-6-carboxamide]
[1]
  TIE2 activity in kinase profiling: 98
[2]
  PKCz activity in kinase profiling: 115
[3]
  IKKe activity in kinase profiling: 107
[4]
  Aurora A activity in kinase profiling: 127
[5]
  PAK5 activity in kinase profiling: 75
[6]
  YES1 activity in kinase profiling: 112
[7]
  ROCK 2 activity in kinase profiling: 68
[8]
  GCK activity in kinase profiling: 90
[9]
  PRAK activity in kinase profiling: 89
[10]
  PKD1 activity in kinase profiling: 96
[11]
  p38d MAPK activity in kinase profiling: 105
[12]
  PKCa activity in kinase profiling: 100
[13]
  IRR activity in kinase profiling: 87
[14]
  SGK1 activity in kinase profiling: 85
[15]
  MAPKAP-K2 activity in kinase profiling: 107
[16]
  HER4 activity in kinase profiling: 94
[17]
  CHK1 activity in kinase profiling: 120
[18]
  JNK1 activity in kinase profiling: 67
[19]
  SYK activity in kinase profiling: 99
[20]
  ABL activity in kinase profiling: 102
[21]
  MEKK1 activity in kinase profiling: 79
[22]
  BRSK1 activity in kinase profiling: 101
[23]
  PLK1 activity in kinase profiling: 110
[24]
  activity at 1 µM: 125%
[25]
  HIPK3 activity in kinase profiling: 100
[26]
  TGFBR1 activity in kinase profiling: 93
[27]
  PIM2 activity in kinase profiling: 78
[28]
  p38b MAPK activity in kinase profiling: 100
[29]
  TTK activity in kinase profiling: 56
[30]
  PAK2 activity in kinase profiling: 92
[31]
  EIF2AK3 activity in kinase profiling: 119
[32]
  TESK1 activity in kinase profiling: 96
[33]
  EF2K activity in kinase profiling: 71
[34]
  CHK2 activity in kinase profiling: 77
[35]
  BRK activity in kinase profiling: 97
[36]
  MST4 activity in kinase profiling: 90
[37]
  TrkA activity in kinase profiling: 93
[38]
  MNK2 activity in kinase profiling: 86
[39]
  Lck activity in kinase profiling: 116
[40]
  TLK1 activity in kinase profiling: 99
[41]
  HIPK2 activity in kinase profiling: 96
[42]
  PAK4 activity in kinase profiling: 84
[43]
  MLK1 activity in kinase profiling: 73

## CSc1nc2ccc3nc(NC(=O)c4ccco4)sc3c2s1 [5E4, N-[7-(methylsulfanyl)[1,3]thiazolo[4,5-g][1,3]benzothiazol-2-yl]-2-furamide]
[1]
  TIE2 activity in kinase profiling: 89
[2]
  PKCz activity in kinase profiling: 103
[3]
  IKKe activity in kinase profiling: 102
[4]
  Aurora A activity in kinase profiling: 107
[5]
  PAK5 activity in kinase profiling: 81
[6]
  YES1 activity in kinase profiling: 110
[7]
  ROCK 2 activity in kinase profiling: 96
[8]
  GCK activity in kinase profiling: 24
[9]
  PRAK activity in kinase profiling: 85
[10]
  PKD1 activity in kinase profiling: 98
[11]
  p38d MAPK activity in kinase profiling: 103
[12]
  PKCa activity in kinase profiling: 81
[13]
  IRR activity in kinase profiling: 92
[14]
  SGK1 activity in kinase profiling: 88
[15]
  MAPKAP-K2 activity in kinase profiling: 92
[16]
  HER4 activity in kinase profiling: 102
[17]
  CHK1 activity in kinase profiling: 111
[18]
  JNK1 activity in kinase profiling: 91
[19]
  SYK activity in kinase profiling: 102
[20]
  ABL activity in kinase profiling: 61
[21]
  MEKK1 activity in kinase profiling: 108
[22]
  BRSK1 activity in kinase profiling: 86
[23]
  PLK1 activity in kinase profiling: 102
[24]
  activity at 1 µM: 121%
[25]
  HIPK3 activity in kinase profiling: 50
[26]
  TGFBR1 activity in kinase profiling: 94
[27]
  PIM2 activity in kinase profiling: 71
[28]
  p38b MAPK activity in kinase profiling: 98
[29]
  TTK activity in kinase profiling: 60
[30]
  PAK2 activity in kinase profiling: 97
[31]
  EIF2AK3 activity in kinase profiling: 84
[32]
  TESK1 activity in kinase profiling: 95
[33]
  EF2K activity in kinase profiling: 79
[34]
  CHK2 activity in kinase profiling: 88
[35]
  BRK activity in kinase profiling: 98
[36]
  MST4 activity in kinase profiling: 93
[37]
  TrkA activity in kinase profiling: 90
[38]
  MNK2 activity in kinase profiling: 88
[39]
  Lck activity in kinase profiling: 101
[40]
  TLK1 activity in kinase profiling: 92
[41]
  HIPK2 activity in kinase profiling: 19
[42]
  PAK4 activity in kinase profiling: 74
[43]
  MLK1 activity in kinase profiling: 25
